Data set [1] is described as follows: logP by HPLC on reversed-phase columns (C 18), EU Guideline 79/831 Annex V.A8. In kind it is physicochemical. To be noted: for chromatographic logP: reversed-phase HPLC column (C 18).
Data set [2] has as its system larvae of the mustard beetle (Phaedon cochleariae). Kind of data set: Phaedon test (PHAECO spray treatment). The settings on record: after 7 days. It is filed as in vivo. The method, then: (§1) Solvents: 78.0 parts by weight of acetone • • 1.5 parts by weight of dimethyl formamide Emulsifier: 0.5 part by weight of alkylaryl polyglycol ether To produce a suitable preparation of active compound, 1 part by weight of active compound is mixed with the stated amounts of solvent and emulsifier, and the concentrate is diluted with emulsifier-containing water to the desired concentration. Discs of Chinese cabbage leaves (Brassica pekinensis) are sprayed with an active compound preparation of the desired concentration and, after drying, populated with larvae of the mustard beetle (Phaedon cochleariae). After 7 days, the activity in % is determined. 100% means that all beetle larvae have been killed; 0% means that none of the beetle larvae have been killed. The test was carried out and evaluated as described in Example B.4.

In the next data set the test system is Ctenocephalides felis. Description: Ctenocephalides felis oral (CTECFE). In kind it is in vivo. To be noted: 100 ppm in citrated cattle blood, after 2 days. As for the experimental part: Solvent: 1 part by weight of dimethyl sulphoxide To produce a suitable preparation of active compound, 10 mg of active compound are mixed with 0.5 ml of dimethyl sulphoxide. One part of the concentrate is diluted with citrated cattle blood, and the desired concentration is prepared. 20 unfed adult fleas (Ctenocephalides felis) are placed into a chamber whose top and bottom ends are closed with gauze. A metal cylinder whose bottom end is closed with parafilm is placed onto the chamber. The cylinder contains the blood/active compound preparation, which can be taken up by the fleas through the parafilm membrane. After 2 days, the kill in % is determined. 100% means that all fleas have been killed; 0% means that none of the fleas have been killed.

The subject of the next data set is Lucilia cuprina larvae. Description: Lucilia cuprina test (LUCICU). It is filed as in vivo. To be noted: 100 ppm, treated horse meat, after 2 days. The method, then:
Solvent: Dimethyl Sulphoxide To produce a suitable preparation of active compound, 10 mg of active compound are mixed with 0.5 ml of dimethyl sulphoxide, and the concentrate is diluted with water to the desired concentration. Containers containing horse meat treated with the active compound preparation of the desired concentration are populated with Lucilia cuprina larvae. After 2 days, the kill in % is determined. 100% means that all larvae have been killed; 0% means that none of the larvae have been killed.

In another data set the test system is Boophilus microplus. Description: Boophilus microplus test (BOOPMI injection). In kind it is in vivo. To be noted: 20 μg/animal, injected into the abdomen, after 7 days. The method, then:
Solvent: Dimethyl Sulphoxide To produce a suitable preparation of active compound, 10 mg of active compound are mixed with 0.5 ml of solvent, and the concentrate is diluted with water to the desired concentration. The active compound solution is injected into the abdomen (Boophilus microplus) and the animals are transferred into dishes and stored in a climatized room. The activity is monitored for deposition of fertile eggs. After 7 days, the activity in % is determined. 100% means that none of the ticks has laid fertile eggs.

In data set [3] the test system is caterpillars of the army worm (Spodoptera frugiperda). Description: Spodoptera frugiperda test (SPODFR spray treatment). In kind it is in vivo. To be noted: after 7 days. As for the experimental part: as §1, with “maize” for “Chinese cabbage”, “(Zea mays)” for “(Brassica pekinensis)”, “caterpillars” for “larvae”, “army worm (Spodoptera frugiperda).” for “mustard beetle (Phaedon cochleariae).”, “caterpillars” for “beetle larvae”, “B.5.” for “B.4.”

For another data set, the system named is adult Musca domestica. Kind of data set: Musca domestica test (MUSCDO). In kind it is in vivo. The settings on record: treated sponge. The method, then:
Solvent: Dimethyl sulphoxide To prepare a suitable preparation of active compound, 10 mg of active component are mixed with 0.5 ml of dimethyl sulphoxide, and the concentrate is diluted with water to the desired concentration. Vessels containing a sponge which had been treated with the active compound preparation of the desired concentration are populated with adult Musca domestica. After the desired period of time, the kill in % is determined. 100% means that all flies have been killed; 0% means that none of the flies have been killed.

The mark [4] stands for this setting: * LC-MS in the acidic range, pH 2.7, 0.1% aqueous formic acid and acetonitrile.
Where [5] appears, read: ** LC-MS in the neutral range, pH 7.8, 0.001 molar aqueous ammonium bicarbonate and acetonitrile.

`CN(C)C=Nc1c(-c2cc(Cl)cc(C(F)(F)F)c2)c(C(F)(F)F)nn1-c1ncccn1` [Example 1-2]: the log partition coefficient (logP) in data set [1] (setting [4]) was 3.89*; in data set [1] (setting [5]), 3.84**;. The “activity (beetle larvae killed)” value in data set [2] (100 g/ha) amounted to 100%. The kill in the data set on Ctenocephalides felis and with Lucilia cuprina larvae was 100% each time. For the same compound, the “activity (no deposition of fertile eggs)” value in the data set on Boophilus microplus turned out to be 95%.

With `CN(C)C=Nc1c(-c2ccc(Cl)c(Cl)c2)c(C(F)(F)F)nn1-c1ncccn1` [Example 1-3], the logP in data set [1] (setting [4]) was 3.37*. Moreover, the “activity (beetle larvae killed)” value in data set [2] (100 g/ha) is on record as 100%. In addition, the kill with Ctenocephalides felis and in the data set on Lucilia cuprina larvae was 100% in each case. In addition, the “activity (no deposition of fertile eggs)” value with Boophilus microplus is given as 100%.

Take `CN(C)C=Nc1c(-c2ccc(Cl)cc2)c(C(F)(F)Cl)nn1-c1ncccn1` [Example 1-4]: the logP in data set [1] (setting [4]) is given as 2.8*. In data set [2] (100 g/ha), the “activity (beetle larvae killed)” value was 100%.

For `COc1ccc(-c2c(C(F)(F)F)nn(-c3ncccn3)c2N=CN(C)C)cc1` [Example 1-5], the logP in data set [1] (setting [4]) is on record as 1.87*. In addition, the “activity (no deposition of fertile eggs)” value in the data set on Boophilus microplus was determined as 100%.

For `Cc1cnc(-n2nc(C(F)(F)F)c(-c3ccc(Cl)c(Cl)c3)c2N=CN(C)C)nc1` [Example 1-6], the logP in data set [1] (setting [4]) is given as 3.58*.

For the compound `Cc1nn(-c2ncccn2)c(N=CN(C)C)c1-c1ccc(Cl)cc1` [Example 1-7], the logP in data set [1] (setting [4]) is 1.09*. In addition, in data set [2] (100 g/ha), the “activity (beetle larvae killed)” value was found to be 100%.

As to `CN(C)C=Nc1c(-c2cccc(Cl)c2)c(C(F)(F)F)nn1-c1ncccn1` [Example 1-8], the logP in data set [1] (setting [4]) is listed as 2.65*. Further, the “activity (beetle larvae killed)” value in data set [2] (100 g/ha) was determined as 100%.

In turn, `CN(C)/C=N/c1c(-c2cc(Cl)cc(Br)c2)c(C(F)(F)F)nn1-c1ncccn1` [Example 1-9, N′-[4-(3-bromo-5-chlorophenyl)-1-(pyrimidin-2-yl)-3-(trifluoromethyl)-1H-pyrazol-5-yl]-N,N-dimethylimidoformamide] had a chromatographic logP in data set [1] (pH 2.7, * LC-MS in the acidic range, pH 2.7, 0.1% aqueous formic acid and acetonitrile) of 3.71. In data set [2] (100 g/ha), the “activity (beetle larvae killed)” value is 100%. Further, the kill with Ctenocephalides felis and with Lucilia cuprina larvae was 100% throughout. In addition, in data set [3] (100 g/ha), the “activity (caterpillars killed)” value worked out at 100%. Besides, the “activity (no deposition of fertile eggs)” value with Boophilus microplus amounted to 100%.

As to `CCOC(C)=Nc1c(-c2cc(Cl)cc(C(F)(F)F)c2)c(C(F)(F)F)nn1-c1ncccn1` [Example 1-14], the logP in data set [1] (setting [5]) is recorded as 5.01**. Moreover, in data set [2] (100 g/ha), the “activity (beetle larvae killed)” value stood at 100%. Besides, the kill in the data set with Ctenocephalides felis is listed as 90%; in the data set with adult Musca domestica (100 ppm), 80%; with Lucilia cuprina larvae, 100%. The “activity (no deposition of fertile eggs)” value in the data set with Boophilus microplus amounted to 80%.

`FC(F)(F)c1cc(Cl)cc(-c2c(C(F)(F)F)nn(-c3ncccn3)c2N=Cc2ccc(Cl)cc2)c1` [Example 1-16]: the logP in data set [1] (setting [5]) was 5.53**. Moreover, the “activity (beetle larvae killed)” value in data set [2] (20 g/ha) and in data set [2] (100 g/ha) was 100% throughout. Further, the “activity (no deposition of fertile eggs)” value with Boophilus microplus is given as 100%.

In the case of `FC(F)(F)c1cc(Cl)cc(-c2c(C(F)(F)F)nn(-c3ncccn3)c2N=Cc2ccccc2Br)c1` [Example 1-31], the logP in data set [1] (setting [5]) is given as 5.64**. In addition, the “activity (beetle larvae killed)” value in data set [2] (100 g/ha) came out at 100%. Moreover, the kill is on record as 90% in the data set with Ctenocephalides felis, 90% in the data set with adult Musca domestica (20 ppm) and 100% in the data set on Lucilia cuprina larvae. Further, the “activity (no deposition of fertile eggs)” value with Boophilus microplus amounted to 100%.

For the compound `FC(F)(F)c1nn(-c2ncccn2)c(N=Cc2ccccc2)c1-c1cc(Br)c2c(c1)CCO2` [Example 1-32], the logP in data set [1] (setting [5]) is 4.11**. For the same compound, the “activity (beetle larvae killed)” value in data set [2] (100 g/ha) was 100%. Further, the kill with Ctenocephalides felis and with Lucilia cuprina larvae was 100% each time. Further, the “activity (no deposition of fertile eggs)” value in the data set on Boophilus microplus is given as 100%.

As to `FC(F)(F)c1cc(Cl)cc(-c2c(C(F)(F)F)nn(-c3ncccn3)c2N=Cc2cccc(Br)c2)c1` [Example 1-39], the “activity (beetle larvae killed)” value in data set [2] (100 g/ha) was determined as 100%. Besides, the kill with Ctenocephalides felis was determined as 80%; in the data set with adult Musca domestica (100 ppm), 100%; in the data set with Lucilia cuprina larvae, 100%. Moreover, in the data set with Boophilus microplus, the “activity (no deposition of fertile eggs)” value amounted to 100%.

Regarding `COC=Nc1c(-c2ccc(Cl)c(C(F)(F)F)c2)c(C(F)(F)F)nn1-c1ncccn1` [Example 1-91], in data set [1] (setting [4]), the logP worked out at 3.71.

Take `CN(C)C=Nc1c(-c2ccc(Cl)cc2)c(C(F)(F)F)nn1-c1ncc(Cl)cn1` [Example 1-108]: in data set [1] (setting [4]), the logP is given as 3.47*.

Take `COc1nccnc1-n1nc(C(F)(F)F)c(-c2cc(Cl)cc(C(F)(F)F)c2)c1N=CN(C)C` [Example 2-1]: the logP in data set [1] (setting [4]) is 4.52*. This compound came in with a kill with Ctenocephalides felis of 80%.

With `CCOc1nccnc1-n1nc(C(F)(F)F)c(-c2cc(Cl)cc(C(F)(F)F)c2)c1N=CN(C)C` [Example 2-2], the logP in data set [1] (setting [4]) was 4.86*.

On to `CC(C)Oc1nccnc1-n1nc(C(F)(F)F)c(-c2cc(Cl)cc(C(F)(F)F)c2)c1N=CN(C)C` [Example 2-3], for which the logP in data set [1] (setting [4]) is 5.17*.

For the compound `CN(C)C=Nc1c(-c2cc(Cl)cc(C(F)(F)F)c2)c(C(F)(F)F)nn1-c1cnccn1` [Example 2-4], in data set [1] (setting [4]), the lipophilicity (logP) is listed as 4.32*.

On to `COc1ccc(C=Nc2c(-c3cc(Cl)c4c(c3)OCO4)c(C(F)(F)F)nn2-c2nccnc2OC)cc1` [Example 2-5], for which the logP in data set [1] (setting [5]) was 4.5**. Also, the kill with Ctenocephalides felis and in the data set with Lucilia cuprina larvae was 100% each time. In addition, in the data set with Boophilus microplus, the “activity (no deposition of fertile eggs)” value is recorded as 100%.

Turning to `COc1nccnc1-n1nc(C(F)(F)F)c(-c2cc(Cl)cc(C(F)(F)F)c2)c1N=Cc1ccccc1` [Example 2-9], the logP in data set [1] (setting [5]) is on record as 5.56**. In data set [2] (100 g/ha), the “activity (beetle larvae killed)” value is given as 100%. Further, the kill was 90% with Ctenocephalides felis, 100% with adult Musca domestica (20 ppm) and 100% with Lucilia cuprina larvae. The “activity (no deposition of fertile eggs)” value in the data set on Boophilus microplus came out at 100%.

For the compound `COc1ccc(C=Nc2c(-c3cc(Cl)cc(C(F)(F)F)c3)c(C(F)(F)C(F)F)nn2-c2nccnc2OC)cc1` [Example 2-10], the logP in data set [1] (setting [5]) was 5.29**.

`COc1ccc(C=Nc2c(-c3cc(Cl)c4c(c3)OCO4)c(C(F)(F)C(F)F)nn2-c2nccnc2OC)cc1` [Example 2-12]: the logP in data set [1] (setting [5]) is reported as 4.41**. Besides, the “activity (beetle larvae killed)” value in data set [2] (100 g/ha) came out at 100%. Moreover, in data set [3] (100 g/ha), the “activity (caterpillars killed)” value is reported as 100%.

Consider `COc1nccnc1-n1nc(C(F)(F)F)c(-c2cc(Cl)c(Cl)c(Cl)c2)c1/N=C/c1ccccc1` [Example 2-15, 1-(3-methoxypyrazin-2-yl)-N-phenylmethylene-4-(3,4,5-trichlorophenyl)-3-(trifluoromethyl)-1H-pyrazol-5-amine], for which the chromatographic logP in data set [1] (pH 7.8, ** LC-MS in the neutral range, pH 7.8, 0.001 molar aqueous ammonium bicarbonate and acetonitrile) worked out at 6.03. For the same compound, the kill in the data set on Ctenocephalides felis is 90%; in the data set on Lucilia cuprina larvae, 100%. Moreover, the “activity (no deposition of fertile eggs)” value with Boophilus microplus turned out to be 100%.

With `FC(F)(F)c1cc(Cl)cc(-c2c(C(F)(F)F)nn(-c3ncccn3)c2NCc2ccccc2)c1` [compound (XX), reference compound], the “activity (beetle larvae killed)” value in data set [2] (4 g/ha) was 0%. Further, the “activity (caterpillars killed)” value in data set [3] (20 g/ha) is 0%.

`FC(F)(F)c1cc(Cl)cc(-c2c(C(F)(F)F)nn(-c3ncccn3)c2NCc2ccc(Cl)cc2)c1` [compound (XXIII), reference compound]: in data set [2] (20 g/ha), the “activity (beetle larvae killed)” value is given as “no activity”.
